The experiment addresses T1, Cholesteryl ester transfer protein (Homo sapiens, UniProt P11597).
T1 sequence (P11597 whole entry): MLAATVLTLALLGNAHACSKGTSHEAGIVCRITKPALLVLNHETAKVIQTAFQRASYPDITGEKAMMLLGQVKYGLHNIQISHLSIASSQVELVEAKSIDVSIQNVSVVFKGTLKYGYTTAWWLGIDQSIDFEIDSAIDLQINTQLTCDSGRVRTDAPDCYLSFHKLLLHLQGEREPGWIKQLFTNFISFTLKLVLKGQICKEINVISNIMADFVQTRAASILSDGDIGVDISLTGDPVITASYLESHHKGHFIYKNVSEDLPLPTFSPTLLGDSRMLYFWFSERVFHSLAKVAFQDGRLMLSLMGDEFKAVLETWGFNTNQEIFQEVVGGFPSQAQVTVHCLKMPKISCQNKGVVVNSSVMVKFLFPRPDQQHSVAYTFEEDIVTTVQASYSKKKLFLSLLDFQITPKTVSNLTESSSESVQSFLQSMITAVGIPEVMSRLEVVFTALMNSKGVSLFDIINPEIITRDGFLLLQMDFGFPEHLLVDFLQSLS
As to the kind of experiment: CETP In Vitro Assay: CETP inhibitory activity of compounds of the present invention can be determined in a fluorometric assay purchased from Roar Biomedical, Inc. (New York, N.Y., USA). […] Recombinant human CETP was partially purified from medium conditioned by CETP expressing CHO cells. In a 384 well format 2.5 ul of compound solution in DMSO was combined with 2 ul of donor solution, 2 ul of acceptor solution and 0.8 ul of recombinant human CETP solution in a total volume of 100 ul with assay buffer and incubated for 3 hours at 37° C. The fluorescence intensity was measured at excitation wavelength of 485 nm and emission wavelength of 535 nm.

`CC(C)c1nc2c(c3c1[C@@H](c1ccc(C(F)(F)F)nc1)OC31CCOCC1)[C@@H](O)CC1(CC1)[C@H]2O`: the IC50 (as a rule, the midpoint of a concentration-inhibition curve) amounted to 210 nM.
